Results on 30 molecules are retold here after patent US20170334899A1, “AMINO-SUBSTITUTED ISOTHIAZOLES” (Bayer Pharma Aktiengesellschaft, priority 2014, published 2017).

The structures appear in SMILES notation.

For the experiment, the system named is human cervical tumor cell line HeLa (ATCC CCL-2). The experiment is described as follows: SAC-Formation - Paclitaxel-Induced Assay. Format: cell-based. The following applies: Homo sapiens, HeLa, 24 h, HeLa cells, paclitaxel 0.05 μM, test range 0.005 μM-20 μM, read-out: IC50 [mol/l] SAC-Formation - Paclitaxel-Induced Assay. In short, it runs like this:
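HeLa cells incubated overnight at 37° C, then given paclitaxel (0.05 μM final) plus test compound (0.005–20 μM, 0.5% DMSO) together for 24 h at 37° C. Fixed cells stained for phospho-histone H3 Ser10 (mitotic cells) and Hoechst 33342 (cell count); imaging-derived mitotic index fitted by four-parameter Hill equation.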

For `CC(=O)Nc1cc(NC(=O)c2c(C)nsc2Nc2cnccn2)ccc1F` [Example 205, N-(3-acetamido-4-fluorophenyl)-3-methyl-5-(pyrazin-2-ylamino)-1,2-thiazole-4-carboxamide], the IC50 stood at 20000 nM. The result for `Cc1nsc(Nc2cncc(C(F)(F)F)n2)c1C(=O)Nc1ccc(OCCCNC(=O)OC(C)(C)C)nc1` [Example 190, tert-butyl {3-[(5-{[(3-methyl-5-{[6-(trifluoromethyl)pyrazin-2-yl]amino}-1,2-thiazoL-4-yl)carbonyl]amino}pyridin-2-yl)oxy]propyl}carbamate] reads 89 nM; that for `Cc1nsc(Nc2cnc(C(F)(F)F)cn2)c1C(=O)Nc1ccc(OC2CCN(C)CC2)nc1` [Example 220, 3-methyl-N-{6-[(1-methylpiperidin-4-yl)oxy]pyridin-3-yl}-5-{[5-(trifluoromethyl)pyrazin-2-yl]amino}-1,2-thiazole-4-carboxamide], 970 nM. For `Cc1nsc(Nc2cncc(C(F)(F)F)n2)c1C(=O)Nc1ccc(OC2CCNCC2)nc1` [Example 13, 3-Methyl-N-[6-(piperidin-4-yloxy)pyridin-3-yl]-5-{[6-(trifluoromethyl)pyrazin-2-yl]-amino}-1,2-thiazole-4-carboxamide] the value was 13000 nM. Regarding `CNS(=O)(=O)c1ccc(NC(=O)c2c(C)nsc2Nc2cc(C#N)ccn2)cc1` [Example 210, 5-[(4-cyanopyridin-2-yl)amino]-3-methyl-N-[4-(methylsulfamoyl)phenyl]-1,2-thiazole-4-carboxamide], the IC50 turned out to be 7700 nM. In the case of `Cc1nsc(Nc2cc(C#N)ccn2)c1C(=O)Nc1ccc(NC2CCCNC2)nc1` (stereo not drawn) [Example 242, 5-[(4-cyanopyridin-2-yl)amino]-3-methyl-N-[6-(piperidin-3-ylamino)pyridin-3-yl]-1,2-thiazole-4-carboxamide], the IC50 worked out at 3300 nM. The result for `Cc1nsc(Nc2cncc(C(F)(F)F)n2)c1C(=O)Nc1ccc(OC2CCN(C)CC2)nc1` [Example 219, 3-methyl-N-{6-[(1-methylpiperidin-4-yl)oxy]pyridin-3-yl}-5-{[6-(trifluoromethyl)pyrazin-2-yl]amino}-1,2-thiazole-4-carboxamide] reads 660 nM; that for `CC(=O)Nc1cc(NC(=O)c2c(C)nsc2Nc2cnc(C(F)(F)F)cn2)ccc1F` [Example 206, N-(3-acetamido-4-fluorophenyl)-3-methyl-5-{[5-(trifluoromethyl)pyrazin-2-yl]amino}-1,2-thiazole-4-carboxamide], 75 nM.

`Cc1nsc(Nc2cc(C#N)ccn2)c1C(=O)Nc1cccc(NC(=O)C(C)(C)C)c1` [Example 183, 5-[(4-cyanopyridin-2-yl)amino]-N-{3-[(2,2-dimethylpropanoyl)amino]phenyl}-3-methyl-1,2-thiazole-4-carboxamide]: the IC50 turned out to be 4900 nM.

For the molecule `Cc1nsc(Nc2cnc(C(F)(F)F)cn2)c1C(=O)Nc1ccc(OCC2CCCN(C(=O)OC(C)(C)C)C2)nc1` (stereo not drawn) [Example 228, tert-butyl 3-{[(5-{[(3-methyl-5-{[5-(trifluoromethyl)pyrazin-2-yl]amino}-1,2-thiazol-4-yl)carbonyl]amino}pyridin-2-yl)oxy]methyl}piperidine-1-carboxylate], the IC50 was found to be 48 nM. As to `COC(=O)CCc1cccc(NC(=O)c2c(C)nsc2Nc2ccc(C#N)cn2)c1` [Example 176, methyl 3-{3-[({5-[(5-cyanopyridin-2-yl)amino]-3-methyl-1,2-thiazol-4-yl}carbonyl)amino]phenyl}propanoate], the IC50 worked out at 240 nM.

With `Cc1nsc(Nc2cnccn2)c1C(=O)Nc1ccc(C(=O)OC(C)(C)C)cc1` [Example 184, tert-butyl 4-({[3-methyl-5-(pyrazin-2-ylamino)-1,2-thiazol-4-yl]carbonyl}amino)benzoate], the IC50 was determined as 140 nM.

In the case of `Cc1nsc(Nc2cnc(C(F)(F)F)cn2)c1C(=O)Nc1ccc(OCC2CCN(C(=O)OC(C)(C)C)CC2)nc1` [Example 227, tert-butyl 4-{[(5-{[(3-methyl-5-{[5-(trifluoromethyl)pyrazin-2-yl]amino}-1,2-thiazol-4-yl)carbonyl]amino}pyridin-2-yl)oxy]methyl}piperidine-1-carboxylate], the IC50 was found to be 300 nM. The result for `Cc1nsc(Nc2cncc(C(F)(F)F)n2)c1C(=O)Nc1ccc(C(=O)OC(C)(C)C)cc1` [Example 193, tert-butyl tert-butyl 4-{[(3-methyl-5-{[6-(trifluoromethyl)pyrazin-2-yl]amino}-1,2-thiazol-4-yl)carbonyl]amino}benzoate] reads 510 nM. As for `Cc1nsc(Nc2cncc(C(F)(F)F)n2)c1C(=O)Nc1ccc(OCCNC(=O)OC(C)(C)C)nc1` [Example 191, tert-butyl {2-[(5-{[(3-methyl-5-{[6-(trifluoromethyl)pyrazin-2-yl]amino}-1,2-thiazol-4-yl)carbonyl]amino}pyridin-2-yl)oxy]ethyl}carbamate], the IC50 came to 37 nM.

In the case of `Cc1nsc(Nc2cnc3ccccc3n2)c1C(=O)Nc1ccc(NCCC(=O)OC(C)(C)C)nc1` [Example 236, tert-butyl N-[5-({[3-methyl-5-(quinoxalin-2-ylamino)-1,2-thiazol-4-yl]carbonyl}amino)pyridin-2-yl]-beta-alaninate], the IC50 worked out at 20000 nM. The result for `Cc1nsc(Nc2ccc(C#N)cn2)c1C(=O)Nc1cccc(NC(=O)OC(C)(C)C)c1` [Example 179, tert-butyl {3-[({5-[(5-cyanopyridin-2-yl)amino]-3-methyl-1,2-thiazol-4-yl}carbonyl)amino]phenyl}carbamate] reads 2200 nM; that for `Cc1nsc(Nc2cnc(C(F)(F)F)cn2)c1C(=O)Nc1ccc(OCCNC(=O)OC(C)(C)C)c(F)c1` [Example 215, tert-butyl [2-(2-fluoro-4-{[(3-methyl-5-{[5-(trifluoromethyl)pyrazin-2-yl]amino}-1,2-thiazol-4-yl)carbonyl]amino}phenoxy)ethyl]carbamate], 72 nM. With `Cc1nsc(Nc2cnc3ccccc3n2)c1C(=O)Nc1ccc(OC2CCNCC2)nc1` [Example 19, 3-Methyl-N-[6-(piperidin-4-yloxy)pyridin-3-yl]-5-(quinoxalin-2-ylamino)-1,2-thiazole-4-carboxamide], the IC50 was found to be 2100 nM.

On to `Cc1nsc(Nc2cncc(C(F)(F)F)n2)c1C(=O)Nc1ccc(OC2CCCN(C(=O)OC(C)(C)C)C2)nc1` (stereo not drawn) [Example 189, tert-butyl 3-[(5-{[(3-methyl-5-{[6-(trifluoromethyl)pyrazin-2-yl]amino}-1,2-thiazol-4-yl)carbonyl]amino}pyridin-2-yl)oxy]piperidine-1-carboxylate], for which the IC50 was found to be 450 nM. The result for `Cc1nsc(Nc2cncc(C(F)(F)F)n2)c1C(=O)Nc1ccc(OCC2CCN(C(=O)OC(C)(C)C)CC2)nc1` [Example 226, tert-butyl 4-{[(5-{[(3-methyl-5-{[6-(trifluoromethyl)pyrazin-2-yl]amino}-1,2-thiazol-4-yl)carbonyl]amino}pyridin-2-yl)oxy]methyl}piperidine-1-carboxylate] reads 210 nM. Consider `Cc1cc(C)n(-c2ccccc2NC(=O)c2c(C)nsc2Nc2cnc3ccccc3n2)n1` [Example 243, N-[2-(3,5-dimethyl-1H-pyrazol-1-yl)phenyl]-3-methyl-5-(quinoxalin-2-ylamino)-1,2-thiazole-4-carboxamide], for which the IC50 was 6500 nM. For `CNC(=O)c1ccc(NC(=O)c2c(C)nsc2Nc2cnc3ccccc3n2)cc1F` [Example 207, N-[3-fluoro-4-(methylcarbamoyl)phenyl]-3-methyl-5-(quinoxalin-2-ylamino)-1,2-thiazole-4-carboxamide] the value was 76 nM. The result for `Cc1nsc(Nc2cc(C#N)ccn2)c1C(=O)Nc1ccc(OCCC(=O)OC(C)(C)C)nc1` [Example 200, tert-butyl 3-({5-[({5-[(4-cyanopyridin-2-yl)amino]-3-methyl-1,2-thiazol-4-yl}carbonyl)amino]pyridin-2-yl}oxy)propanoate] reads 1200 nM. Turning to `Cc1nsc(Nc2cc(C#N)ccn2)c1C(=O)Nc1ccc(NC(=O)OC(C)(C)C)cc1` [Example 177, tert-butyl {4-[({5-[(4-cyanopyridin-2-yl)amino]-3-methyl-1,2-thiazol-4-yl}carbonyl)amino]phenyl}carbamate], the IC50 came out at 11000 nM. For the molecule `Cc1nsc(Nc2cncc(C(F)(F)F)n2)c1C(=O)Nc1ccc(C(=O)NC2CCN(CC(F)F)CC2)cc1` [Example 225, N-N-(4-{[1-(2,2-difluoroethyl)piperidin-4-yl]carbamoyl}phenyl)-3-methyl-5-{[6-(trifluoromethyl)pyrazin-2-yl]amino}-1,2-thiazole-4-carboxamide], the IC50 turned out to be 570 nM. The result for `Cc1nsc(Nc2cnc3ccccc3n2)c1C(=O)Nc1ccc(C(N)=O)c(F)c1` [Example 201, N-(4-carbamoyl-3-fluorophenyl)-3-methyl-5-(quinoxalin-2-ylamino)-1,2-thiazole-4-carboxamide] reads 220 nM; that for `Cc1nsc(Nc2cc(C#N)ccn2)c1C(=O)Nc1cccc(C(=O)OC(C)(C)C)c1` [Example 239, tert-butyl 3-[({5-[(4-cyanopyridin-2-yl)amino]-3-methyl-1,2-thiazol-4-yl}carbonyl)amino]benzoate], 630 nM.

In the case of `Cc1nsc(Nc2cnc(C(F)(F)F)cn2)c1C(=O)Nc1ccc(OCCN)c(F)c1` [Example 221, 3-N-[4-(2-aminoethoxy)-3-fluorophenyl]-3-methyl-5-{[5-(trifluoromethyl)pyrazin-2-yl]amino}-1,2-thiazole-4-carboxamide], the IC50 came to 500 nM. `Cc1nsc(Nc2cc(C#N)ccn2)c1C(=O)Nc1ccc(C(=O)OC(C)(C)C)cc1` [Example 182, tert-butyl 4-[({5-[(4-cyanopyridin-2-yl)amino]-3-methyl-1,2-thiazol-4-yl}carbonyl)amino]benzoate]: the IC50 is 19 nM.
